Source: patent US20180245061A1, “Modified Heterocyclase” (THE UNIVERSITY COURT OF THE UNIVERSITY OF ABERDEEN, priority 2014, published 2018)

Columns and labels:
Design in all cases: species or system Lyngbya sp. PCC 8106
[1] = target: Lyngbya sp. LynD heterocyclase (SEQ ID NO: 1) variant K409A; experiment: ITC nucleotide binding (ATP/AMP) to LynD K409A; conditions: 25° C., pH 7.4, 5 mM MgCl2
Protocol: (§1) Codon optimized full-length LynD (Lyngbya sp. PCC 8106) with an N-terminal TEV protease-cleavable His6-tag was purchased from DNA2.0 in the pJexpress411 plasmid. The protein was expressed in Escherichia coli BL21 (DE3) grown on auto-induction medium {Studier, 2005, Protein expression and purification, 41, 207-234} for 48 h at 20° C. Cells were harvested by centrifugation at 4,000×g, 4° C. for 15 min and re-suspended in lysis buffer (500 mM NaCl, 20 mM Tris pH 8.0, 20 mM imidazole and 3 mM β-mercaptoethanol (BME)) with the addition of complete EDTA-free protease inhibitor tablets (Roche) and 0.4 mg DNase g^−1 wet cells (Sigma). Cells were lysed by passage through a cell disruptor at 30 kPSI (Constant Systems Ltd) and the lysate was cleared by centrifugation at 40,000×g, 4° C. for 20 min. The cleared lysate was applied to a Nickel Sepharose 6 Fast Flow (GE Healthcare) column pre-washed with lysis buffer and protein eluted with 250 mM imidazole. The protein was then passed over a desalting column (Desalt 16/10, GE Healthcare) in 100 mM NaCl, 20 mM Tris pH 8.0, 20 mM imidazole, 3 mM BME. Tobacco etch virus (TEV) protease was added to the protein at a mass-to-mass ratio of 1:10 and the protein digested for 2 h at 20° C. to remove the Hiss-tag. However, removal of the Hiss-tag was not essential for activity and so less vigorous methods for purification may also be used. […]

[2] = target: Lyngbya sp. LynD heterocyclase (SEQ ID NO: 1) variant R636A; experiment: ITC nucleotide binding (AMP) to LynD R636A; conditions: 25° C., pH 7.4, 5 mM MgCl2
Protocol: as §1

[3] = target: Lyngbya sp. LynD heterocyclase (SEQ ID NO: 1) variant E423R; experiment: ITC nucleotide binding (ATP/AMP) to LynD E423R; conditions: 25° C., pH 7.4, 5 mM MgCl2
Protocol: as §1

[4] = target: Lyngbya sp. LynD heterocyclase, wild type, SEQ ID NO: 1; experiment: ITC nucleotide binding (ATP/AMP) to LynD; conditions: 25° C., pH 7.4, 5 mM MgCl2, one-site model, stoichiometry set to 1, read-out: Nucleotide KD (AMP)
Protocol: as §1

[5] = target: Lyngbya sp. LynD heterocyclase (SEQ ID NO: 1) variant R636E; experiment: ITC nucleotide binding (ATP/AMP) to LynD R636E; conditions: 25° C., pH 7.4, 5 mM MgCl2
Protocol: as §1

[6] = target: Lyngbya sp. LynD heterocyclase (SEQ ID NO: 1) variant K409E; experiment: ITC nucleotide binding (ATP/AMP) to LynD K409E; conditions: 25° C., pH 7.4, 5 mM MgCl2
Protocol: as §1

[7] = target: Lyngbya sp. LynD heterocyclase (SEQ ID NO: 1) variant R427E; experiment: ITC nucleotide binding (ATP/AMP) to LynD R427E; conditions: 25° C., pH 7.4, 5 mM MgCl2
Protocol: as §1

Nc1ncnc2c1ncn2[C@@H]1O[C@H](COP(=O)(O)O)[C@@H](O)[C@H]1O [AMP]
Nucleotide KD (AMP) [1]: no binding | Nucleotide KD (AMP) [2]: no binding | Kd [3]: 5.65 µM | Kd [4]: 14.4 µM | Nucleotide KD (AMP) [5]: no binding | Nucleotide KD (AMP) [6]: no binding | Kd [7]: 23 µM
